{"source": "patent US20230027066A1", "about": "(Urovant Sciences GmbH, priority 2019, published 2023)", "test_system": "men and women with overactive bladder", "assay": "Phase 3 study of vibegron 75 mg vs placebo and tolterodine ER 4 mg, 12 weeks, efficacy (voiding and urine volume diary)", "assay_type": "in vivo, human", "method": "Enrollment of patients included individuals with OAB Wet (those with UUI, the involuntary loss of urine accompanied by urgency) and OAB Dry (those without UUI). A total of 1,518 patients were randomized across 215 study sites into one of three groups for a 12-week treatment period.\nThe study consisted of a Screening Period (1 to 5 weeks), a single-blind Run-in Period (2 weeks), a randomized double-blind Treatment Period (12 weeks), and a Follow-up Period (4 weeks).\nTolterodine ER 4 mg was the active control. […] Between the Baseline and Week 12 Visits, patients had study assessments at Week 4 and Week 8.\nThe Patient Voiding Diary was used by participants (via the eDiary or paper Diary) to record the frequency of daily OAB symptoms including all micturitions, urgency, incontinence, and main reason for incontinence by selecting the respective box for each symptom occurring during the course of a given day and night.\nUrine volume data were collected separately by patients using the Urine Volume component of the eDiary, or the paper Urine Volume Chart. The Urine Volume Chart is a tool used in clinical practice and clinical investigation to assess voiding functions over a 24-hour period and is regarded as a useful instrument in the investigation of patients with voiding symptoms. Urine volume may be collected during any one (1) of the 7 Diary Days prior to the visit, and it should be recorded for ˜24 hours starting from the time the patient gets up for the day and continues until the time the patient gets up for the day on the next day.\nFor the purpose of this study, the number of micturitions was defined as the number of times a patient has voided in the toilet as indicated on the Patient Voiding Diary. Average daily micturitions were calculated using the daily entries in the Patient Voiding Diary, which was completed over the 7 days prior to each study visit. Average daily number of micturitions were calculated as the total number of micturitions that occurred on a Complete Diary Day divided by the number of Complete Diary Days in the Patient Voiding Diary. A complete diary day required confirmation by the patient in the Patient Voiding Diary that all voids and leakages had been recorded for the diary day. Baseline was defined as the average number of micturitions occurring during the last evaluable diary prior to the Baseline Visit.\nThe number of UUI episodes was defined as the number of times a patient had checked “urge” as the reason for accidental urine leakage. Average daily UUI episodes at each study visit were calculated in the same manner as described above for the micturition endpoint. The UUI endpoint were analyzed using only OAB Wet patients.\nFor the analysis of the co-primary endpoints (change from baseline in average number of daily micturitions at Week 12 and change from baseline in average number of daily urge urinary incontinence episodes at Week 12, and placebo adjustment of each), a mixed model for repeated measure (MMRM) with restricted maximum likelihood estimation was used. This model corrects for dropout and accounts for the fact that measurements taken on the same patient over time tend to be correlated by using all available information on patients within the same covariate set to derive an estimate of the treatment effect for a dropout-free population. The analysis model for each efficacy endpoint includes terms for treatment, visit, OAB Type (Wet vs Dry), Sex (Female vs Male), Region (US vs Rest of World), baseline score, and interaction of visit by treatment.\nPrimary inferences were drawn from treatment differences for the changes from baseline derived from the MMRM models at Week 12. As part of secondary objectives, the treatment differences for each post baseline visit were also derived using the same MMRM model. […]", "key": {"[1]": {"conditions": "Week 8, events of Events/Censored"}, "[2]": {"conditions": "Week 12, Age ≥ 75 years (posthoc analysis)"}, "[3]": {"conditions": "Week 12, No Prior ACH Use in last 12 Mo."}, "[4]": {"conditions": "Week 12, No Prior B3 Agonist Use in last 12 Mo."}, "[5]": {"conditions": "Week 12, Prior ACH Use in last 12 Mo."}, "[6]": {"conditions": "Week 12, Prior B3 Agonist Use in last 12 Mo."}}, "data": [{"molecule": "Cc1ccc(O)c([C@H](CCN(C(C)C)C(C)C)c2ccccc2)c1", "note": "[Tolterodine ER, tolterodine, reference compound]", "values": [{"measurement": "Average daily number of urgency episodes, Mean (SD)", "setting": "Week 8", "value": "5.60 (4.266)"}, {"measurement": "Average volume voided per micturition, Active - Placebo LS Mean Difference", "setting": "Week 8", "value": 14.4, "unit": "mL"}, {"measurement": "Average volume voided per micturition, Week 8 Mean (SD)", "setting": "Week 8", "value": "162.9 (74.46) mL"}, {"measurement": "Change from Baseline in Average Daily Number of Total Incontinence, LS Mean (SE)", "setting": "Week 8", "value": "−1.8 (0.16)"}, {"measurement": "Change from baseline in average daily number of urgency episodes, LS Mean", "setting": "Week 8", "value": "−2.2"}, {"measurement": "Change from baseline in average volume voided per micturition, LS Mean (SE)", "setting": "Week 8", "value": "17.5 (3.44) mL"}, {"measurement": "Estimated Incidence of Subjects with 50% Decrease from Baseline (urgency episodes)", "setting": "Week 8", "value": 30.9}, {"measurement": "Estimated Incidence of Subjects with 100% Decrease from Baseline (UUI episodes)", "setting": "Week 8", "value": 15.8}, {"measurement": "Total Incontinence, Active - Placebo LS Mean Difference (SE)", "setting": "Week 8", "value": "−0.5 (0.17)"}, {"measurement": "Urgency episodes, Active - Placebo LS Mean Difference", "setting": "Week 8", "value": "−0.6"}, {"measurement": "First 50% Reduction in Urgency Episodes, Events", "setting": "[1]", "value": "127/290"}, {"measurement": "First 100% Reduction in UUI Episodes, Events", "setting": "[1]", "value": "49/270"}, {"measurement": "Average Daily Number of Total Incontinence, Mean (SD)", "setting": "Week 12", "value": "1.89 (2.353)"}, {"measurement": "Average daily number of urgency episodes, Mean (SD)", "setting": "Week 12", "value": "5.36 (4.425)"}, {"measurement": "Average volume voided per micturition, Active - Placebo LS Mean Difference", "setting": "Week 12", "value": 13.3, "unit": "mL"}, {"measurement": "Average volume voided per micturition, Week 12 Mean (SD)", "setting": "Week 12", "value": "162.1 (72.96) mL"}, {"measurement": "Change from Baseline in Average Daily Number of Total Incontinence, LS Mean (SE)", "setting": "Week 12", "value": "−2.0 (0.16)"}, {"measurement": "Change from baseline in average daily number of urgency episodes, LS Mean", "setting": "Week 12", "value": "−2.5"}, {"measurement": "Change from baseline in average volume voided per micturition, LS Mean (SE)", "setting": "Week 12", "value": "15.5 (3.52) mL"}, {"measurement": "Estimated Incidence of Subjects with 50% Decrease from Baseline (urgency episodes)", "setting": "Week 12", "value": 40.5}, {"measurement": "Estimated Incidence of Subjects with 100% Decrease from Baseline (UUI episodes)", "setting": "Week 12", "value": 24.4}, {"measurement": "Total Incontinence, Active - Placebo LS Mean Difference (SE)", "setting": "Week 12", "value": "−0.5 (0.17)"}, {"measurement": "Urgency episodes, Active - Placebo LS Mean Difference", "setting": "Week 12", "value": "−0.4"}, {"measurement": "Micturitions: Week 12 CFB Mean (descriptive statistics)", "setting": "Week 12, <65 yrs", "value": "−1.99"}, {"measurement": "UUI: Week 12 CFB Mean (descriptive statistics)", "setting": "Week 12, African American", "value": "−1.42"}, {"measurement": "UUI: Week 12 CFB Median", "setting": "Week 12, African American", "value": "−1.43"}, {"measurement": "Micturitions: Week 12 CFB LS Mean (95% CI)", "setting": "Week 12, Age < 65 years", "value": "−1.8"}, {"measurement": "UUI: Week 12 CFB LS Mean (95% CI)", "setting": "Week 12, Age < 65 years", "value": "−1.8"}, {"measurement": "UUI: Week 12 CFB Mean (descriptive statistics)", "setting": "Week 12, Age < 65 years", "value": "−1.72"}, {"measurement": "Micturitions: Week 12 CFB LS Mean (95% CI)", "setting": "Week 12, Age ≥ 65 years", "value": "−1.3"}, {"measurement": "UUI: Week 12 CFB LS Mean (95% CI)", "setting": "Week 12, Age ≥ 65 years", "value": "−1.8"}, {"measurement": "UUI: Week 12 CFB Mean (descriptive statistics)", "setting": "Week 12, Age ≥ 65 years", "value": "−1.80"}, {"measurement": "Micturitions: Week 12 CFB LS Mean (95% CI)", "setting": "[2]", "value": "−1.5"}, {"measurement": "UUI: Week 12 CFB LS Mean (95% CI)", "setting": "[2]", "value": "−2.0"}, {"measurement": "UUI: Week 12 CFB Mean (descriptive statistics)", "setting": "Week 12, Asian", "value": "−0.21"}, {"measurement": "UUI: Week 12 CFB Median", "setting": "Week 12, Asian", "value": "−0.14"}, {"measurement": "Micturitions: Week 12 CFB LS Mean (95% CI)", "setting": "Week 12, Females", "value": "−1.7"}, {"measurement": "Micturitions: Week 12 CFB Mean (descriptive statistics)", "setting": "Week 12, Females", "value": "−1.88"}, {"measurement": "UUI: Week 12 CFB LS Mean (95% CI)", "setting": "Week 12, Females", "value": "−1.8"}, {"measurement": "UUI: Week 12 CFB Mean (descriptive statistics)", "setting": "Week 12, Females", "value": "−1.71"}, {"measurement": "Micturitions: Week 12 CFB LS Mean (95% CI)", "setting": "Week 12, Males", "value": "−1.0"}, {"measurement": "Micturitions: Week 12 CFB Mean (descriptive statistics)", "setting": "Week 12, Males", "value": "−1.28"}, {"measurement": "UUI: Week 12 CFB LS Mean (95% CI)", "setting": "Week 12, Males", "value": "−2.0"}, {"measurement": "UUI: Week 12 CFB Mean (descriptive statistics)", "setting": "Week 12, Males", "value": "−2.08"}, {"measurement": "Micturitions: Week 12 CFB Mean (descriptive statistics)", "setting": "Week 12, Males with BPH", "value": "−1.25"}, {"measurement": "UUI: Week 12 CFB Mean (descriptive statistics)", "setting": "Week 12, Males with BPH", "value": "−2.15"}, {"measurement": "Micturitions: Week 12 CFB Mean (descriptive statistics)", "setting": "Week 12, Males without BPH", "value": "−1.29"}, {"measurement": "UUI: Week 12 CFB Mean (descriptive statistics)", "setting": "Week 12, Males without BPH", "value": "−2.05"}, {"measurement": "Micturitions: Week 12 CFB Mean (descriptive statistics)", "setting": "[3]", "value": "−1.82"}, {"measurement": "UUI: Week 12 CFB Mean (descriptive statistics)", "setting": "[3]", "value": "−1.88"}, {"measurement": "Micturitions: Week 12 CFB Mean (descriptive statistics)", "setting": "[4]", "value": "−1.83"}, {"measurement": "UUI: Week 12 CFB Mean (descriptive statistics)", "setting": "[4]", "value": "−1.83"}, {"measurement": "Micturitions: Week 12 CFB LS Mean (95% CI)", "setting": "Week 12, Non-White", "value": "−1.3"}, {"measurement": "Micturitions: Week 12 CFB Mean (descriptive statistics)", "setting": "Week 12, Non-White", "value": "−1.42"}, {"measurement": "UUI: Week 12 CFB LS Mean (95% CI)", "setting": "Week 12, Non-White", "value": "−1.3"}, {"measurement": "UUI: Week 12 CFB Mean (descriptive statistics)", "setting": "Week 12, Non-White", "value": "−1.11"}, {"measurement": "UUI: Week 12 CFB Median", "setting": "Week 12, Non-White", "value": "−1.00"}, {"measurement": "Micturitions: Week 12 CFB LS Mean (95% CI)", "setting": "Week 12, Overall", "value": "−1.6"}, {"measurement": "Micturitions: Week 12 CFB Mean (descriptive statistics)", "setting": "Week 12, Overall", "value": "−1.78"}, {"measurement": "UUI: Week 12 CFB LS Mean (95% CI)", "setting": "Week 12, Overall", "value": "−1.8"}, {"measurement": "UUI: Week 12 CFB Mean (descriptive statistics)", "setting": "Week 12, Overall", "value": "−1.75"}, {"measurement": "Micturitions: Week 12 CFB Mean (descriptive statistics)", "setting": "[5]", "value": "−1.52"}, {"measurement": "UUI: Week 12 CFB Mean (descriptive statistics)", "setting": "[5]", "value": "−0.98"}, {"measurement": "Micturitions: Week 12 CFB Mean (descriptive statistics)", "setting": "[6]", "value": "−1.30"}, {"measurement": "UUI: Week 12 CFB Mean (descriptive statistics)", "setting": "[6]", "value": "−0.65"}, {"measurement": "Micturitions: Week 12 CFB LS Mean (95% CI)", "setting": "Week 12, Region: Non-US", "value": "−1.0"}, {"measurement": "Micturitions: Week 12 CFB Mean (descriptive statistics)", "setting": "Week 12, Region: Non-US", "value": "−1.38"}, {"measurement": "UUI: Week 12 CFB LS Mean (95% CI)", "setting": "Week 12, Region: Non-US", "value": "−2.0"}, {"measurement": "UUI: Week 12 CFB Mean (descriptive statistics)", "setting": "Week 12, Region: Non-US", "value": "−2.26"}, {"measurement": "Micturitions: Week 12 CFB LS Mean (95% CI)", "setting": "Week 12, Region: US", "value": "−1.7"}, {"measurement": "Micturitions: Week 12 CFB Mean (descriptive statistics)", "setting": "Week 12, Region: US", "value": "−1.83"}, {"measurement": "UUI: Week 12 CFB LS Mean (95% CI)", "setting": "Week 12, Region: US", "value": "−1.7"}, {"measurement": "UUI: Week 12 CFB Mean (descriptive statistics)", "setting": "Week 12, Region: US", "value": "−1.69"}, {"measurement": "Micturitions: Week 12 CFB LS Mean (95% CI)", "setting": "Week 12, White", "value": "−1.6"}, {"measurement": "Micturitions: Week 12 CFB Mean (descriptive statistics)", "setting": "Week 12, White", "value": "−1.90"}, {"measurement": "UUI: Week 12 CFB LS Mean (95% CI)", "setting": "Week 12, White", "value": "−1.9"}, {"measurement": "UUI: Week 12 CFB Mean (descriptive statistics)", "setting": "Week 12, White", "value": "−1.92"}, {"measurement": "UUI: Week 12 CFB Median", "setting": "Week 12, White", "value": "−1.57"}]}]}
